US8658604B2, “Template-fixed beta-hairpin peptidomimetics with protease inhibitory activity” (Polyphor Ltd, priority 2005, dated 2014)
Like-named read-outs stand apart in the source and are kept apart here. Where a SMILES comes first, the peptide text is derived from it.

Experiments:
[1] = target: T1, Chymase, from human skin (Homo sapiens, UniProt P23946); test: Enzymatic assay, chymase
T1 sequence (P23946 22-247): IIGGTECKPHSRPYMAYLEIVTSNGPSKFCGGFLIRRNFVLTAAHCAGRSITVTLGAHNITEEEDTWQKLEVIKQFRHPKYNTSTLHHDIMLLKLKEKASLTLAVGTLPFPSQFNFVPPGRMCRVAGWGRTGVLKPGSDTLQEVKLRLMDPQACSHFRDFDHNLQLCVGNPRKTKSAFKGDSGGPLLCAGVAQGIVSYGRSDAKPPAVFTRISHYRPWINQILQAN

[2] = target: Trypsin, from human pancreas (Homo sapiens, UniProt P07477); test: Enzymatic assay, trypsin; conditions: at 100 μM
[3] = target: Chymotrypsin, from human pancreas (Homo sapiens, UniProt P17538); test: Enzymatic assay, chymotrypsin
Sequence of Chymotrypsin, from human pancreas (P17538 19-263): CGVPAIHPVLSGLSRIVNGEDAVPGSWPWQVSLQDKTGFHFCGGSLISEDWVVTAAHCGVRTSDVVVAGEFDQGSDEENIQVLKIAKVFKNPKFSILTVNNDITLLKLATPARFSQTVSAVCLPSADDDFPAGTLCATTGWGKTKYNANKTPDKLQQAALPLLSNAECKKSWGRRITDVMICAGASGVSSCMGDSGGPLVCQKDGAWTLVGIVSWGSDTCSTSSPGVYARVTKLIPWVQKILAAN

[4] = target: T2, Elastase from human neutrophils (Homo sapiens, UniProt P08246); test: Enzymatic assay, elastase; conditions: for Elastase at 100 μM %: at 100 μM (stated in cell instead of IC50)
T2 sequence (P08246 30-267): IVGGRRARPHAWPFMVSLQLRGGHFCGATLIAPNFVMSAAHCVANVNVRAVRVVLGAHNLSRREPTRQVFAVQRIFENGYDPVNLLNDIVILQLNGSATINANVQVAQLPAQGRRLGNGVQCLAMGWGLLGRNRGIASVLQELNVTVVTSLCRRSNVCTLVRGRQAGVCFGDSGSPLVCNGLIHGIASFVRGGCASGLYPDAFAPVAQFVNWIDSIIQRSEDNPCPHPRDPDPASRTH

[5] = target: T3, CathepsinG, from human neutrophils (Homo sapiens, UniProt P08311); test: Enzymatic assay, cathepsin G; conditions: for Cathepsin G at 100 μM %: at 100 μM (stated in cell instead of IC50)
T3 sequence (P08311 21-244): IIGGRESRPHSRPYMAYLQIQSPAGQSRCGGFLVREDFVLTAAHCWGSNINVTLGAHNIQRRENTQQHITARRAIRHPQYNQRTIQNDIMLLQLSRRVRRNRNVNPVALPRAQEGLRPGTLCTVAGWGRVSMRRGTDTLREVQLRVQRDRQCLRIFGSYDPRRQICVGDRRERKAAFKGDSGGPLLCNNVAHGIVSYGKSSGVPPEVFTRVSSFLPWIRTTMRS

[6] = target: Thrombin, from Human Plasma (Homo sapiens, UniProt P00734); test: Enzymatic assay, thrombin
[7] = target: Coagulation Factor Xa, from uman plasma (Homo sapiens, UniProt P00742); test: Enzymatic assay, coagulation factor Xa
Sequence of Coagulation Factor Xa, from uman plasma (P00742 235-488 limits assumed): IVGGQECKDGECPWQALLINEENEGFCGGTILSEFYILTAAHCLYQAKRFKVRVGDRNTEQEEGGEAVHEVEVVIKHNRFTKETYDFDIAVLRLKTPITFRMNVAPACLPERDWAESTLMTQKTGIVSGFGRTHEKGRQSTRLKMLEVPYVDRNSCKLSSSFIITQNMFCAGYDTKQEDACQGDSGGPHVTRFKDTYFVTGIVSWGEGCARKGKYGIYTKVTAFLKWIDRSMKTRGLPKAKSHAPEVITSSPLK
Sequence of Coagulation Factor Xa, from uman plasma (P00742 41-179 limits assumed): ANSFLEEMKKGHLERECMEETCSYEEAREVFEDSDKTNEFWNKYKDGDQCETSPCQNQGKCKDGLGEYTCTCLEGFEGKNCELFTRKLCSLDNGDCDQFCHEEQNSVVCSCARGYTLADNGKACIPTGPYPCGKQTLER

[8] = target: Urokinase from human urine (Homo sapiens, UniProt P00749); test: Enzymatic assay, urokinase
[9] = test system: Tryptase, from human lung; test: Enzymatic assay, tryptase; conditions: at 100 μM

SMILES	Chymase at 100 μM % [1]	Trypsin at 100 μM % [2]	Chymotrypsin at 100 μM % [3]	Elastase at 100 μM % [4]	IC50 ([5]; Cathepsin G IC50)	Thrombin at 100 μM % [6]	FXa at 100 μM % [7]	Urokinase at 100 μM % [8]	IC50 ([4]; Elastase IC50)	Tryptase at 100 μM % [9]	IC50 [3]	Cathepsin G at 100 μM % [5]	IC50 ([4]; read-out: Elastase IC50)	IC50 ([5]; read-out: Cathepsin G IC50)
CCCC[C@@H]1NC(=O)[C@H](CCCNC(=N)N)NC(=O)[C@@H]2CCCN2C(=O)[C@H]2CCCN2C(=O)[C@H](Cc2ccccc2)NC(=O)[C@H](CCCC)NC(=O)[C@H]([C@@H](C)CC)NC(=O)[C@@H]2CCCN2C(=O)[C@@H]2CCCN2C(=O)[C@H](CC(=O)O)NC(=O)[C@H](CO)NC(=O)[C@H](CCCCN)NC(=O)[C@H]([C@@H](C)O)NC1=O [Ex. 8] (HELM PEPTIDE1{R.[Nle].T.K.S.D.P.P.I.[Nle].F.[dP].P}$PEPTIDE1,PEPTIDE1,1:R1-13:R2$$$V2.0)	71.7%	74.2%	5.6%	0.8 at %	126 nM									
CC[C@H](C)[C@@H]1NC(=O)[C@@H]2CCCN2C(=O)[C@@H]2CCCN2C(=O)[C@H](CC(=O)O)NC(=O)[C@H](CO)NC(=O)[C@H](CCCCN)NC(=O)[C@H]([C@@H](C)O)NC(=O)[C@@H]2CSSC[C@H](NC1=O)C(=O)N[C@@H](CO)C(=O)N1CCC[C@@H]1C(=O)N1CCC[C@H]1C(=O)N[C@@H](C1CCCCC1)C(=O)N2 [Ex. 11] (HELM PEPTIDE1{[O=C([C@@H](N[*:1])C1CCCCC1)[*:2]].C.T.K.S.D.P.P.I.C.S.[dP].P}$PEPTIDE1,PEPTIDE1,2:R3-10:R3|PEPTIDE1,PEPTIDE1,1:R1-13:R2$$$V2.0)	12.1%	6.5%	73.6%	19 at %	95 nM									
CC[C@H](C)[C@@H]1NC(=O)[C@@H]2CCCN2C(=O)[C@@H]2CCCN2C(=O)[C@H](CC(=O)O)NC(=O)[C@H](CN)NC(=O)[C@H](CCCCN)NC(=O)[C@H]([C@@H](C)O)NC(=O)[C@@H]2CSSC[C@H](NC1=O)C(=O)N[C@@H](CO)C(=O)N1CCC[C@@H]1C(=O)N1CCC[C@H]1C(=O)N[C@@H](Cc1ccccc1)C(=O)N2 [Ex. 25] (HELM PEPTIDE1{F.C.T.K.[NC[C@H](N[*:1])C(=O)[*:2]].D.P.P.I.C.S.[dP].P}$PEPTIDE1,PEPTIDE1,2:R3-10:R3|PEPTIDE1,PEPTIDE1,1:R1-13:R2$$$V2.0)	10.0%	89.3%		3.2 at %	102 nM									
CC[C@H](C)[C@@H]1NC(=O)[C@@H]2CCCN2C(=O)[C@@H]2CCCN2C(=O)[C@H](CC(=O)O)NC(=O)[C@H](CO)NC(=O)[C@H](CCCCN)NC(=O)[C@H]([C@@H](C)O)NC(=O)[C@@H]2CSSC[C@H](NC1=O)C(=O)N[C@@H](Cc1ccc(O)cc1)C(=O)N1CCC[C@@H]1C(=O)N1CCC[C@H]1C(=O)N[C@@H](CCc1ccccc1)C(=O)N2 [Ex. 30] (HELM PEPTIDE1{[O=C([C@H](CCc1ccccc1)N[*:1])[*:2]].C.T.K.S.D.P.P.I.C.Y.[dP].P}$PEPTIDE1,PEPTIDE1,2:R3-10:R3|PEPTIDE1,PEPTIDE1,1:R1-13:R2$$$V2.0)	0%	98%	49%		39 nM	2%	3%	9%	49900 nM					
CC[C@H](C)[C@@H]1NC(=O)[C@@H]2CCCN2C(=O)[C@@H]2CCCN2C(=O)[C@H](CC(=O)O)NC(=O)[C@H](CO)NC(=O)[C@H](CCCCN)NC(=O)[C@H]([C@@H](C)O)NC(=O)[C@@H]2CSSC[C@H](NC1=O)C(=O)N[C@@H](CO)C(=O)N[C@H](C)C(=O)N1CCC[C@H]1C(=O)N[C@@H](Cc1ccccc1)C(=O)N2 [Ex. 49] (HELM PEPTIDE1{F.C.T.K.S.D.P.P.I.C.S.[dA].P}$PEPTIDE1,PEPTIDE1,2:R3-10:R3|PEPTIDE1,PEPTIDE1,1:R1-13:R2$$$V2.0)	0%	96%	0%		82 nM	7.9%		6.2%	> 10000 nM	30.5%				
CCCC[C@@H]1NC(=O)[C@@H]2CCCN2C(=O)[C@H]2CCCN2C(=O)[C@H](Cc2ccc(O)cc2)NC(=O)[C@@H]2CSSC[C@H](NC1=O)C(=O)N[C@@H]([C@@H](C)O)C(=O)N[C@@H](C)C(=O)N[C@@H](CO)C(=O)N[C@@H](CC(C)(C)C)C(=O)N1CCC[C@H]1C(=O)N1CCC[C@H]1C(=O)N[C@@H](CCC(N)=O)C(=O)N2 [Ex. 85] (HELM PEPTIDE1{[Nle].C.T.A.S.[CC(C)(C)C[C@H](N[*:1])C(=O)[*:2]].P.P.Q.C.Y.[dP].P}$PEPTIDE1,PEPTIDE1,2:R3-10:R3|PEPTIDE1,PEPTIDE1,1:R1-13:R2$$$V2.0)		0%				12.6%	25.6%		28 nM		> 20000 nM			
CCCC[C@@H]1NC(=O)[C@@H]2CCCN2C(=O)[C@H]2CCCN2C(=O)[C@H](Cc2ccc(O)cc2)NC(=O)[C@@H]2CSSC[C@H](NC1=O)C(=O)N[C@@H](C)C(=O)N[C@@H](C)C(=O)N[C@@H](CO)C(=O)N[C@@H]([C@@H](C)CC)C(=O)N1CCC[C@H]1C(=O)N1CCC[C@H]1C(=O)N[C@@H](CCC(N)=O)C(=O)N2 [Ex. 86] (HELM PEPTIDE1{[Nle].C.A.A.S.I.P.P.Q.C.Y.[dP].P}$PEPTIDE1,PEPTIDE1,2:R3-10:R3|PEPTIDE1,PEPTIDE1,1:R1-13:R2$$$V2.0)	0%	0%				10.7%	24.8%		26 nM	0%	> 100000 nM	47 at 100%		
CCCC[C@@H]1NC(=O)[C@H](CCC(N)=O)NC(=O)[C@H]2CCCN2C(=O)[C@H](Cc2ccc(O)cc2)NC(=O)[C@@H]2CSSC[C@H](NC1=O)C(=O)N[C@@H]([C@@H](C)O)C(=O)N[C@@H](C)C(=O)N[C@@H](CO)C(=O)N[C@@H]([C@@H](C)CC)C(=O)N1CCC[C@H]1C(=O)N1CCC[C@H]1C(=O)N[C@@H](CCC(N)=O)C(=O)N2 [Ex. 123] (HELM PEPTIDE1{[Nle].C.T.A.S.I.P.P.Q.C.Y.[dP].Q}$PEPTIDE1,PEPTIDE1,2:R3-10:R3|PEPTIDE1,PEPTIDE1,1:R1-13:R2$$$V2.0)	0%	7.9%			35200 nM	2.7%	0%	7.6%	14 nM		15000 nM			
CCCC[C@@H]1NC(=O)[C@H](CCC(=O)O)NC(=O)[C@@H](CCCCN)NC(=O)[C@H](Cc2ccc(O)cc2)NC(=O)[C@@H]2CSSC[C@H](NC1=O)C(=O)N[C@@H]([C@@H](C)O)C(=O)N[C@@H](C)C(=O)N[C@@H](CO)C(=O)N[C@@H]([C@@H](C)CC)C(=O)N1CCC[C@H]1C(=O)N1CCC[C@H]1C(=O)N[C@@H](CCC(N)=O)C(=O)N2 [Ex. 127] (HELM PEPTIDE1{[Nle].C.T.A.S.I.P.P.Q.C.Y.[dK].E}$PEPTIDE1,PEPTIDE1,2:R3-10:R3|PEPTIDE1,PEPTIDE1,1:R1-13:R2$$$V2.0)	1.9%	0%	47.2%			3.7%	13.3%		29 nM	0%		64 at 100%		
C[C@@H](O)[C@@H]1NC(=O)[C@@H]2CSSC[C@H](NC(=O)[C@H](CC3CCCCC3)NC(=O)[C@@H]3CCCN3C(=O)[C@@H]3CCCN3C(=O)[C@H](CC(=O)O)NC(=O)[C@H](CO)NC(=O)[C@H](CCCCN)NC1=O)C(=O)N[C@@H](CO)C(=O)N1CCC[C@@H]1C(=O)N1CCC[C@H]1C(=O)N[C@@H](Cc1ccccc1)C(=O)N2 [compound 54] (HELM PEPTIDE1{F.C.T.K.S.D.P.P.[Cha].C.S.[dP].P}$PEPTIDE1,PEPTIDE1,2:R3-10:R3|PEPTIDE1,PEPTIDE1,1:R1-13:R2$$$V2.0)	12.9%	90%	18%					3.2%					> 100000 nM	66 nM
